pIC50: −log10 of the molar value.
How the values were obtained:
[1] = target: T1, isolated kinase domain of the human FLT3 receptor (a.a. 571-993) (Homo sapiens, UniProt P36888); assay: FLT3 fluorescence polarization kinase assay; assay type: biochemical; settings: 150 uM ATP; uncertainty ±10%
T1 construct: human FLT3 receptor (a.a. 571-993)
T1 sequence (P36888 571-993): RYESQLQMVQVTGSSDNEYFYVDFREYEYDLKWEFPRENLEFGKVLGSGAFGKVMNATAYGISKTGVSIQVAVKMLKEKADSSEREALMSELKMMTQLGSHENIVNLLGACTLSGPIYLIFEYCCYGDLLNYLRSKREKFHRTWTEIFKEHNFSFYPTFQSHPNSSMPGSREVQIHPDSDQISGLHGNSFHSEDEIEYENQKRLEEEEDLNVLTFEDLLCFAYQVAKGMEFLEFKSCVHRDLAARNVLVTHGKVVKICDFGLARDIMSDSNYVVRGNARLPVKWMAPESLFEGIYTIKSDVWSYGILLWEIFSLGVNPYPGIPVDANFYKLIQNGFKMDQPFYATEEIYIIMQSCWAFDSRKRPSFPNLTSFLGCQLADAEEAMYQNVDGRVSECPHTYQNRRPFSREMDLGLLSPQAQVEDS

MV4-11 cells = assay: Inhibition of MV4-11 cell proliferation (CellTiterGlo, 72 h); assay type: cell-based; settings: Homo sapiens; 72 h growth inhibition; uncertainty ±20%

pIC50 [1]	pIC50 (MV4-11 cells)	SMILES
8.52	8.05	CC(C)Oc1ccc(NC(=O)N2CCC(c3ncnc4cc(OCCCN5CCCC5=O)ccc34)CC2)cc1 [Example 67, 4-{7-[3-(2-Oxo-pyrrolidin-1-yl)-propoxy]-quinazolin-4-yl}-piperidine-1-carboxylic acid (4-isopropoxy-phenyl)-amide]
7.52	6.72	COc1cc2ncnc(C3CCN(C(=O)Nc4ccc(OC(C)C)nc4)CC3)c2cc1OC [Example 56, 4-(6,7-Dimethoxy-quinazolin-4-yl)-piperidine-1-carboxylic acid (6-isopropoxy-pyridin-3-yl)-amide]
7.19	7.04	CN1CCN(CCCOc2ccc3c(C4CCN(C(=O)Nc5cnc(N6CCCC6)nc5)CC4)ncnc3c2)CC1 [Example 105, 4-{7-[3-(4-Methyl-piperazin-1-yl)-propoxy]-quinazolin-4-yl}-piperidine-1-carboxylic acid (2-pyrrolidin-1-yl-pyrimidin-5-yl)-amide]
7.08	6.55	CC(C)Oc1ccc(NC(=O)N2CCC(c3ccnc4ccccc34)CC2)cc1 [Example 6, 4-Quinolin-4-yl-piperidine-1-carboxylic acid (4-isopropoxy-phenyl)-amide]
7.89	7.54	COc1cc2ncnc(C3CCN(CC(=O)Nc4ccc(C(C)C)cc4)CC3)c2cc1OC [Example 9, 2-[4-(6,7-Dimethoxy-quinazolin-4-yl)-piperidin-1-yl]-N-(4-isopropyl-phenyl)-acetamide]
6.99	6.86	O=C(Nc1ccc(N2CCOCC2)cc1)N1CCC(c2ncnc3cc(OCCCO)ccc23)CC1 [Example 77, 4-[7-(3-Hydroxy-propoxy)-quinazolin-4-yl]-piperidine-1-carboxylic acid (4-morpholin-4-yl-phenyl)-amide]
9.00	7.74	CN1CCN(CCCOc2ccc3c(C4CCN(C(=O)Nc5ccc(OC6CCCC6)nc5)CC4)ncnc3c2)CC1 [Example 82, 4-{7-[3-(4-Methyl-piperazin-1-yl)-propoxy]-quinazolin-4-yl}-piperidine-1-carboxylic acid (6-cyclopentyloxy-pyridin-3-yl)-amide]
7.82	7.32	COc1cc2ncnc(C3CCN(C(=O)Nc4ccc(C(C)(C)C)cc4)CC3)c2cc1OC [Example 53, 4-(6,7-Dimethoxy-quinazolin-4-yl)-piperidine-1-carboxylic acid (4-tert-butyl-phenyl)-amide]
8.10	7.05	CS(=O)(=O)N1CCN(CCCOc2ccc3c(C4CCN(C(=O)Nc5ccc(N6CCOCC6)cc5)CC4)ncnc3c2)CC1 [Example 118, 4-{7-[3-(4-Methanesulfonyl-piperazin-1-yl)-propoxy]-quinazolin-4-yl}-piperidine-1-carboxylic acid (4-morpholin-4-yl-phenyl)-amide]
7.39	7.13	O=C1CCCN1CCOc1ccc2c(C3CCN(C(=O)Nc4cnc(N5CCCC5)nc4)CC3)ncnc2c1 [Example 84, 4-{7-[2-(2-Oxo-pyrrolidin-1-yl)-ethoxy]-quinazolin-4-yl}-piperidine-1-carboxylic acid (2-pyrrolidin-1-yl-pyrimidin-5-yl)-amide]
6.44	5.85	COc1cc2ncnc(C3CCN(C(=O)Nc4ccc(-c5ccc(Cl)nc5)cc4)CC3)c2cc1OC [Example 60, 4-(6,7-Dimethoxy-quinazolin-4-yl)-piperidine-1-carboxylic acid [4-(6-chloro-pyridin-3-yl)-phenyl]-amide]
7.80	6.98	CCN1CCN(CCCOc2ccc3c(C4CCN(C(=O)Nc5ccc(N6CCOCC6)cc5)CC4)ncnc3c2)CC1 [Example 115, 4-{7-[3-(4-Ethyl-piperazin-1-yl)-propoxy]-quinazolin-4-yl}-piperidine-1-carboxylic acid (4-morpholin-4-yl-phenyl)-amide]
7.57	6.56	O=C(Nc1ccc(N2CCOCC2)cc1)N1CCC(c2ncnc3cc(OCCC4CCCCN4)ccc23)CC1 (centres unmarked) [Example 98, 4-[7-(2-Piperidin-2-yl-ethoxy)-quinazolin-4-yl]-piperidine-1-carboxylic acid (4-morpholin-4-yl-phenyl)-amide]
9.70	7.68	O=C(Nc1ccc(N2CCCC2)nc1)N1CCC(c2ncnc3cc(OCCN4CCOC4=O)ccc23)CC1 [Example 92, 4-{7-[2-(2-Oxo-oxazolidin-3-yl)-ethoxy]-quinazolin-4-yl}-piperidine-1-carboxylic acid (6-pyrrolidin-1-yl-pyridin-3-yl)-amide]
7.43	7.52	O=C1CCCN1CCCOc1ccc2c(C3CCN(C(=O)Nc4ccc(N5CCOCC5)cc4)CC3)ncnc2c1 [Example 68, 4-{7-[3-(2-Oxo-pyrrolidin-1-yl)-propoxy]-quinazolin-4-yl}-piperidine-1-carboxylic acid (4-morpholin-4-yl-phenyl)-amide]
9.00	7.77	CS(=O)(=O)NCCCOc1ccc2c(C3CCN(C(=O)Nc4ccc(N5CCCC5)nc4)CC3)ncnc2c1 [Example 86, 4-[7-(3-Methanesulfonylamino-propoxy)-quinazolin-4-yl]-piperidine-1-carboxylic acid (6-pyrrolidin-1-yl-pyridin-3-yl)-amide]
7.10	7.44	CC(C)Oc1ccc(NC(=O)N2CCC(c3ncnc4cc(N(C)C)ccc34)CC2)cc1 [Example 100, 4-(7-Dimethylamino-quinazolin-4-yl)-piperidine-1-carboxylic acid (4-isopropoxy-phenyl)-amide]
7.96	7.92	CN1CCN(CCCOc2ccc3c(C4CCN(C(=O)Nc5ccc(N6CCCC6)nc5)CC4)ncnc3c2)CC1 [Example 104, 4-{7-[3-(4-Methyl-piperazin-1-yl)-propoxy]-quinazolin-4-yl}-piperidine-1-carboxylic acid (6-pyrrolidin-1-yl-pyridin-3-yl)-amide]
7.46	7.74	CN1CCC(COc2ccc3c(C4CCN(C(=O)Nc5ccc(N6CCCC6)cc5)CC4)ncnc3c2)CC1 [Example 109, 4-[7-(1-Methyl-piperidin-4-ylmethoxy)-quinazolin-4-yl]-piperidine-1-carboxylic acid (4-pyrrolidin-1-yl-phenyl)-amide]
7.72	8.15	CCC(C)c1ccc(NC(=O)N2CCC(c3ncnc4cc(OC)c(OC)cc34)CC2)cc1 (centres unmarked) [Example 52, 4-(6,7-Dimethoxy-quinazolin-4-yl)-piperidine-1-carboxylic acid (4-sec-butyl-phenyl)-amide]
5.43	4.78	COc1cc2ncnc(C3CCN(C(=O)Nc4ccccc4)CC3)c2cc1OC [Example 45, 4-(6,7-Dimethoxy-quinazolin-4-yl)-piperidine-1-carboxylic acid phenylamide]
< 5.00	5.12	COc1cc2ncnc(C3CCN(C(=O)Nc4ccc(C5=CCNCC5)cc4)CC3)c2cc1OC [Example 62, 4-(6,7-Dimethoxy-quinazolin-4-yl)-piperidine-1-carboxylic acid [4-(1,2,3,6-tetrahydro-pyridin-4-yl)-phenyl]-amide]
8.52	7.57	CC(C)Oc1ccc(NC(=O)N2CCC(c3ncnc4cc(OCCCOS(C)(=O)=O)ccc34)CC2)cc1 [Example 121, Methanesulfonic acid 3-{4-[1-(4-isopropoxy-phenylcarbamoyl)-piperidin-4-yl]-quinazolin-7-yloxy}-propyl ester]
7.14	6.73	O=C1CCCN1CCCOc1ccc2c(C3CCN(C(=O)Nc4cnc(N5CCCC5)nc4)CC3)ncnc2c1 [Example 90, 4-{7-[3-(2-Oxo-pyrrolidin-1-yl)-propoxy]-quinazolin-4-yl}-piperidine-1-carboxylic acid (2-pyrrolidin-1-yl-pyrimidin-5-yl)-amide]
7.46	6.91	COc1cc2ncnc(C3CCN(C(=O)Nc4ccc(Oc5ccccc5)cc4)CC3)c2cc1OC [Example 47, 4-(6,7-Dimethoxy-quinazolin-4-yl)-piperidine-1-carboxylic acid (4-phenoxy-phenyl)-amide]
5.70	5.39	COc1cc2ncnc(C3CCN(C(=O)Nc4ccc(C5CCN(C(=O)OC(C)(C)C)CC5)cc4)CC3)c2cc1OC [Example 63, 4-(4-{[4-(6,7-Dimethoxy-quinazolin-4-yl)-piperidine-1-carbonyl]-amino}-phenyl)-piperidine-1-carboxylic acid tert-butyl ester]
7.85	6.86	O=C(Nc1ccc(N2CCOCC2)cc1)N1CCC(c2ncnc3cc(OCCCN4CCN(CCO)CC4)ccc23)CC1 [Example 116, 4-(7-{3-[4-(2-Hydroxy-ethyl)-piperazin-1-yl]-propoxy}-quinazolin-4-yl)-piperidine-1-carboxylic acid (4-morpholin-4-yl-phenyl)-amide]

SMILES	pIC50 [1]	pIC50 (MV4-11 cells)
CN1CCN(CCCOc2ccc3c(C4CCN(C(=O)Nc5ccc(N6CCOCC6)cc5)CC4)ncnc3c2)CC1 [Example 73, 4-{7-[3-(4-Methyl-piperazin-1-yl)-propoxy]-quinazolin-4-yl}-piperidine-1-carboxylic acid (4-morpholin-4-yl-phenyl)-amide]	8.52	7.40
